Assay results taken from the supplement of paper PMC10307832.

Tests used:
Experiment in all cases: relative viability (nuclei count vs DMSO), 5 days (fraction); higher = more cells survive
Idelalisib + Linsitinib = compound: CC[C@H](Nc1ncnc2[nH]cnc12)c1nc2cccc(F)c2c(=O)n1-c1ccccc1 [Idelalisib] + C[C@]1(O)C[C@@H](c2nc(-c3ccc4ccc(-c5ccccc5)nc4c3)c3c(N)nccn32)C1 [Linsitinib] (partner 1 µM)
Procedure, shortened: (§1)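 Lung cancer cell lines were pin-tool dosed in 1536-well plates on the day after seeding, with either a lone drug or a fixed anchor-drug dose plus five library-drug doses (not always all listed) in √10 steps. Nuclei were counted on 4× images after 5 days. Relative viability is the ratio of treated-well to vehicle-well nuclei counts, with each value a median of duplicate plates.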

Idelalisib + Phenformin = compound: CC[C@H](Nc1ncnc2[nH]cnc12)c1nc2cccc(F)c2c(=O)n1-c1ccccc1 [Idelalisib] + N=C(N)NC(=N)NCCc1ccccc1 [Phenformin] (partner 250 µM)
Procedure, shortened: as §1

Idelalisib + Olaparib = compound: CC[C@H](Nc1ncnc2[nH]cnc12)c1nc2cccc(F)c2c(=O)n1-c1ccccc1 [Idelalisib] + O=C(c1cc(Cc2n[nH]c(=O)c3ccccc23)ccc1F)N1CCN(C(=O)C2CC2)CC1 [Olaparib] (partner 8 µM)
Procedure, shortened: as §1

Pemetrexed + Alpelisib = compound: Nc1nc2[nH]cc(CCc3ccc(C(=O)N[C@@H](CCC(=O)O)C(=O)O)cc3)c2c(=O)[nH]1 [Pemetrexed] + Cc1nc(NC(=O)N2CCC[C@H]2C(N)=O)sc1-c1ccnc(C(C)(C)C(F)(F)F)c1 [Alpelisib] (partner 2 µM)
Procedure, shortened: as §1

**Q.** Which results are given for UMC-11?
**A.** relative viability (Idelalisib + Linsitinib; first compound 0.04 µM): 0.912; relative viability (Idelalisib + Linsitinib; first compound 0.1265 µM): 1.02; relative viability (Idelalisib + Linsitinib; first compound 0.4 µM): 0.966; relative viability (Idelalisib + Linsitinib; first compound 1.265 µM): 1.01; relative viability (Idelalisib + Linsitinib; first compound 4 µM): 1.06; relative viability (Idelalisib + Phenformin; first compound 0.04 µM): 0.323; relative viability (Idelalisib + Phenformin; first compound 0.1265 µM): 0.327; relative viability (Idelalisib + Phenformin; first compound 0.4 µM): 0.303; relative viability (Idelalisib + Phenformin; first compound 1.265 µM): 0.321; relative viability (Idelalisib + Phenformin; first compound 4 µM): 0.318; relative viability (Idelalisib + Olaparib; first compound 0.04 µM): 0.416; relative viability (Idelalisib + Olaparib; first compound 0.1265 µM): 0.347; relative viability (Idelalisib + Olaparib; first compound 0.4 µM): 0.407; relative viability (Idelalisib + Olaparib; first compound 1.265 µM): 0.631; relative viability (Idelalisib + Olaparib; first compound 4 µM): 0.351; relative viability (Pemetrexed + Alpelisib; first compound 0.002 µM): 1.04; relative viability (Pemetrexed + Alpelisib; first compound 0.006325 µM): 1.03; relative viability (Pemetrexed + Alpelisib; first compound 0.02 µM): 1; relative viability (Pemetrexed + Alpelisib; first compound 0.06325 µM): 1.03; relative viability (Pemetrexed + Alpelisib; first compound 0.2 µM): 0.829
